Measured values: US8415357B2 (Canbas Co., Ltd., priority 2007, dated 2013)
Entries after “also recorded” stand apart in the source; their conditions may differ.

How the values were obtained:
[1] = test system: Jurkat cells; assay: Adaptation to G2 cell cycle arrest (G1 increment) in X-ray pre-arrested Jurkat cells, flow cytometry; assay type: cell-based, human; conditions: for IC50: Homo sapiens, Jurkat, 24 h, concentration causing half-maximal increase of % cells in G1 phase (G1 increment), Jurkat pre-arrested by 10 Gy X-ray, 24 hours with compound
In short: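 Jurkat cells were G2-arrested by 10 Gy X-ray irradiation and held 24 h in 10% FCS/RPMI1640 at 37 °C. They were then exposed to compounds for a further 24 h. Propidium iodide staining and flow cytometry gave the %G1 cells, and IC50 (μM) is the concentration giving a half-maximal G1 increment.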

[2] = test system: ARH-77 cells; assay: Survival of SCID mice with xenografts of ARH-77 cells; conditions: for cytotoxicity against normal cells (the mouse graft host): administered intraperitoneally or orally to SCID mice with ARH-77 xenografts
Description: For the experiment shown in FIG. 6, mice received 1.9×10^6 ARH-77 cells by intraperitoneal transplantation. […] Mice treated with dexamethasone (“Dexa”) received an intraperitoneal injection of 2 mg/kg dexamethasone. Vehicle treated control animals received intraperitoneal vehicle injection. Each injection was performed on day 1, day 2 and day 3 after transplantation of ARH-77 cells.
For the experiment shown in FIG. 7, mice received 0.8×10^6 ARH-77 cells by intraperitoneal transplantation.
For the experiment shown in FIG. 8, mice received 4.1×10^6 ARH-77 cells by intraperitoneal transplantation.

SMILES	IC50 ([1]; Table 3) [nM]	cytotoxicity against normal cells (the mouse graft host) [2]	IC50 ([1]; Table 2) [nM]	percentage of cells in G1 phase ([1]; Jurkat cells pre-arrested at G2 by X-ray 10 Gy, 0.019 μM to 0.625 μM, 24 hours)	first decrease in survival, days after transplantation ([2]; 0.8×10^6 ARH-77 cells i.p., single oral administration 750 mg/kg on Day 1) [days]	survival at 85 days ([2]; 0.8×10^6 ARH-77 cells i.p., single oral administration 750 mg/kg on Day 1, control about 20%) [%]
CC1=C(COCCC(C)(C)C)C(=O)N(Nc2ccc(C(F)(F)F)c(Cl)n2)C1=O [Compound S03747, 3-[(3,3-dimethylbutoxy)methyl]-1-{[6-chloro-5-(trifluoromethyl) (2-pyridyl)]amino}-4-methylazoline-2,5-dione]	< 19	no detectable cytotoxicity against normal cells				
CC1=C(COCCC(C)C)C(=O)N(Nc2ccc(C(F)(F)F)c(Cl)n2)C1=O [Compound S03405, 1-{[6-chloro-5-(trifluoromethyl)(2-pyridyl)]amino}-4-methyl-3-[(3-methylbutoxy)methyl]azoline-2,5-dione]	< 19	no detectable cytotoxicity against normal cells				
CC1=C(CCC(=O)OC(C)(C)C)C(=O)N(Nc2ccc(C(F)(F)F)c(Cl)n2)C1=O [Compound S01860, tert-butyl 3-(1-{[6-chloro-5-(trifluoromethyl)(2-pyridyl)]amino}-4-methyl-2,5-dioxoazolin-3-yl) propanoate]		no detectable cytotoxicity against normal cells	30	dose-dependent increase in the percentage of cells in G1 phase; also recorded: significant increase in the number of G1 cells	70	~90
